The results in this text go back to ChEMBL document CHEMBL1143804, “Synthesis and antibacterial evaluation of 1beta-methyl-2-[5-(1-methoxyimino-2-substituted sulfonamide ethyl)pyrrolidin-3-ylthio]carbapenems and their related compounds” (2007).

The subject of experiment [1] is Enterobacter cloacae. The experiment can be described thus: Antibacterial activity against Enterobactor cloacae 1321E. Type of experiment: functional.
Experiment [2] relates to Staphylococcus aureus. The experiment can be described thus: Antibacterial activity against Staphylococcus aureus SG511. The experiment is classed as functional.
The test system of experiment [3] is Klebsiella aerogenes. The experiment can be described thus: Antibacterial activity against Klebsiella aerogenes 1522E. Type of experiment: functional.
The subject of experiment [4] is Streptococcus pyogenes. The experiment can be described thus: Antibacterial activity against Streptococcus pyogenes 308A. The experiment is classed as functional.
Experiment [5] deals with Escherichia coli. As to the kind of experiment: Antibacterial activity against Escherichia coli DC2. Type of experiment: functional.
For experiment [6], the system named is Staphylococcus aureus. The experiment can be described thus: Antibacterial activity against Staphylococcus aureus 285. The experiment is classed as functional.
Experiment [7] relates to Pseudomonas aeruginosa. As to the kind of experiment: Antibacterial activity against Pseudomonas aeruginosa 9027. Type of experiment: functional.
Experiment [8] relates to Salmonella typhimurium. The experiment can be described thus: Antibacterial activity against Salmonella Typhimurium. Type of experiment: functional, Salmonella enterica subsp. enterica serovar Typhimurium. To be noted: Salmonella enterica.
Experiment [9] deals with Escherichia coli. As to the kind of experiment: Antibacterial activity against Escherichia coli TEM. Type of experiment: functional.
Experiment [10] has as its system Streptococcus pyogenes. As to the kind of experiment: Antibacterial activity against Streptococcus pyogenes 77A. The experiment is classed as functional.

Values after ≈ are worked out from the molar mass of the structure shown.

For the compound `CCS(=O)(=O)NC/C(=N\OC)[C@@H]1C[C@H](SC2=C(C(=O)O)N3C(=O)[C@H]([C@@H](C)O)[C@H]3[C@H]2C)CN1`, the MIC came to 0.781 µg/mL (≈ 1.59 µM) in experiment [1]; 0.195 µg/mL (≈ 0.397 µM) in [2]; 0.781 µg/mL (≈ 1.59 µM) in experiment [3]; 0.195 µg/mL (≈ 0.397 µM) in [4]; 0.391 µg/mL (≈ 0.797 µM) in experiment [5]; 0.781 µg/mL (≈ 1.59 µM) in experiment [6]. The MIC in experiment [7] worked out at 12.5 µg/mL (≈ 25.5 µM); in [8], 1.56 µg/mL (≈ 3.18 µM); in experiment [9] it was 0.195 µg/mL (≈ 0.397 µM); in [10] it was 0.098 µg/mL (≈ 0.2 µM).
In the case of `CO/N=C(\CNS(=O)(=O)N(C)C)[C@@H]1C[C@H](SC2=C(C(=O)O)N3C(=O)[C@H]([C@@H](C)O)[C@H]3[C@H]2C)CN1`, the MIC in experiment [1] came to 0.195 µg/mL (≈ 0.386 µM); in experiment [2] it was 0.195 µg/mL (≈ 0.386 µM); in [3] it was 0.391 µg/mL (≈ 0.773 µM); in experiment [4], 0.025 µg/mL (≈ 0.0494 µM); in [5], 0.098 µg/mL (≈ 0.194 µM); in experiment [6], 0.195 µg/mL (≈ 0.386 µM). Moreover, the MIC in experiment [7] turned out to be 6.25 µg/mL (≈ 12.4 µM); in [8], 0.195 µg/mL (≈ 0.386 µM); in [9], 0.098 µg/mL (≈ 0.194 µM); in experiment [10] it was 0.013 µg/mL (≈ 0.0257 µM).
On to `CO/N=C(\CNC(N)=O)[C@@H]1C[C@H](SC2=C(C(=O)O)N3C(=O)[C@H]([C@@H](C)O)[C@H]3[C@H]2C)CN1`, for which the MIC in [1] was 0.049 µg/mL (≈ 0.111 µM); in experiment [2], 0.098 µg/mL (≈ 0.222 µM); in experiment [3], 0.195 µg/mL (≈ 0.442 µM); in experiment [4] it was < 0.01 µg/mL; in [5], 0.049 µg/mL (≈ 0.111 µM); in experiment [6] it was 0.195 µg/mL (≈ 0.442 µM). Moreover, the MIC in experiment [7] was determined as 1.56 µg/mL (≈ 3.53 µM); in experiment [8] it was 0.098 µg/mL (≈ 0.222 µM); in [9], 0.049 µg/mL (≈ 0.111 µM); in [10], 0.013 µg/mL (≈ 0.0294 µM).
Turning to `CCNS(=O)(=O)NC/C(=N\OC)[C@@H]1C[C@H](SC2=C(C(=O)O)N3C(=O)[C@H]([C@@H](C)O)[C@H]3[C@H]2C)CN1`, the MIC is 0.025 µg/mL (≈ 0.0494 µM) in experiment [1]; 0.049 µg/mL (≈ 0.0969 µM) in experiment [2]; 0.049 µg/mL (≈ 0.0969 µM) in experiment [3]; < 0.01 µg/mL in experiment [4]; 0.013 µg/mL (≈ 0.0257 µM) in [5]; 0.098 µg/mL (≈ 0.194 µM) in experiment [6]. Further, the MIC in experiment [7] was 3.12 µg/mL (≈ 6.17 µM); in [8], 0.025 µg/mL (≈ 0.0494 µM); in [9], 0.049 µg/mL (≈ 0.0969 µM); in experiment [10], < 0.01 µg/mL.
For the compound `CO/N=C(\CN)[C@@H]1C[C@H](SC2=C(C(=O)O)N3C(=O)[C@H]([C@@H](C)O)[C@H]3[C@H]2C)CN1`, the MIC in experiment [1] is 0.098 µg/mL (≈ 0.246 µM); in [2] it was 0.098 µg/mL (≈ 0.246 µM); in experiment [3], 0.195 µg/mL (≈ 0.489 µM); in [4] it was < 0.01 µg/mL; in experiment [5], 0.049 µg/mL (≈ 0.123 µM); in experiment [6], 0.195 µg/mL (≈ 0.489 µM). Further, the MIC was 3.12 µg/mL (≈ 7.83 µM) in experiment [7], 0.098 µg/mL (≈ 0.246 µM) in experiment [8], 0.195 µg/mL (≈ 0.489 µM) in experiment [9] and < 0.01 µg/mL in experiment [10].
